Results taken from patent US9688710B2, “Inhibitors of sodium glucose cotransporter 1” (LEXICON PHARMACEUTICALS, INC., priority 2012, dated 2017).

How the values were obtained:
[1] = molecular target: Human sodium/glucose co-transporter type 1 (SGLT1) (Homo sapiens (Human), UniProt P13866); assay: In vitro human SGLT1 inhibition assay (14C-AMG uptake); assay type: cell-based; conditions: HEK293 cells expressing human HA-SGLT1, 14C-AMG uptake
Method in brief: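 HEK293 cells stably expressing human HA-tagged SGLT1 (30,000/well, overnight) were washed into Na+-containing uptake buffer (140 mM NaCl, HEPES/Tris, 1 mg/mL BSA, pH 7.3). Cells then received compound plus 100 nCi 14C-AMG for 1–2 h at 37 °C; after washing, AMG uptake was quantified by scintillation counting.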

[2] = molecular target: Human sodium/glucose co-transporter type 2 (SGLT2) (Homo sapiens (Human), UniProt P31639); assay: In vitro human SGLT2 inhibition assay (14C-AMG uptake); assay type: cell-based; conditions: HEK293 cells expressing human HA-SGLT2, 14C-AMG uptake
Method in brief: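 HEK293 cells stably expressing HA-tagged human SGLT2, seeded overnight, washed into Na+-containing HEPES/Tris uptake buffer with 1 mg/mL BSA, pH 7.3. Compound added, then 14C-AMG (100 nCi); 1-2 h at 37 °C, 5% CO2. Washed cells counted by scintillation for 14C-AMG uptake.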

KKay mice [3] = assay: Glucose challenge in KKAy diabetic mice (glucose excursion); assay type: in vivo; conditions: KKay mice on 45% high fat diet, 1.5 and 4.5 mg/kg once daily, day 22, glucose bolus 2 g/kg 15 hours after dosing
From the text: (§1) Twelve week-old male KKay mice were purchased from The Jackson Laboratory (Bar Harbor, Me.). They were switched to 45% high fat diet (HFD; diet D12451i, Research Diets) and housed individually for one week before study. The mice were randomized into the following groups by their HbA1c levels and body weights:
(§2) Mice received either vehicle or Compound C once daily at […] for 36 days. Body weight and food consumption were monitored daily. On day 22, blood was collected before glucose challenge for baseline glucose. Mice were then given a bolus dose of glucose (2 g/kg, 10 mL/kg). Blood was collected at 30, 60 and 120 minutes after glucose challenge to estimate the glucose excursion. Blood glucose was analyzed by Cobas Integra 400 Autoanalyzer (Roche Diagnostics).

KKay mice [4] = assay: HbA1c in KKAy diabetic mice; assay type: in vivo; conditions: 1.5 and 4.5 mg/kg once daily, day 26
From the text: as §1, §2
On day 26 after dosing, blood was collected for HbA1c. HbA1c was measured using a meter manufactured by Bayer according to the protocol recommended by Bayer.

KKay mice [5] = assay: Postprandial tGLP-1 in KKAy diabetic mice; assay type: in vivo; conditions: 4.5 mpk group, day 29, 60 minutes after glucose bolus 2 g/kg
From the text: as §1, §2
On day 29, the mice again received a glucose bolus (2 g/kg, 10 mL/kg). Blood was collected at 60 minutes after glucose challenge and analyzed for tGLP-1. Plasma was prepared by centrifuging blood samples at 1000 rpm for 10 minutes at 4° C. tGPL-1 was analyzed by ELISA (Glucagon-Like Peptide-1 Total ELISA Kit, catalog #EZGLP1T-36K, Millipore, St. Charles, Mo.) according to the protocol recommended by Millipore.

Human sodium/glucose co-transporter type 2 (SGLT2), sequence (P31639 whole entry): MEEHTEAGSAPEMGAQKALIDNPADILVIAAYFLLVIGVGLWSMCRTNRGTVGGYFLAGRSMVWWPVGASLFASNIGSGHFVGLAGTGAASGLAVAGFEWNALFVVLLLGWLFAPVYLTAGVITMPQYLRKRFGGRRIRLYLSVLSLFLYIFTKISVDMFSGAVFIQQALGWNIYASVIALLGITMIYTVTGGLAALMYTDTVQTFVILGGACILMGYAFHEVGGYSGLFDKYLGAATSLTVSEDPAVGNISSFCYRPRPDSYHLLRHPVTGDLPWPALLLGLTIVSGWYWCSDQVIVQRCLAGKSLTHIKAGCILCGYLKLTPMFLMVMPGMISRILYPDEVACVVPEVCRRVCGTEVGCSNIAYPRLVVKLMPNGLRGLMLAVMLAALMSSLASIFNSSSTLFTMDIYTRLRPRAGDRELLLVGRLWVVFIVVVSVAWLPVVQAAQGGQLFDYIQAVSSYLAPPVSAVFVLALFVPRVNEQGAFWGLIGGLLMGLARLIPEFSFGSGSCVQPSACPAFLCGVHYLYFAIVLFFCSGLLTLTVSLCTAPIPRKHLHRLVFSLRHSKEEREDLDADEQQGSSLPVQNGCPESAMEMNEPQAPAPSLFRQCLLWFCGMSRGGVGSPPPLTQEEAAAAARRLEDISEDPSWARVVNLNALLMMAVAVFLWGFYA
Human sodium/glucose co-transporter type 1 (SGLT1), sequence (P13866 whole entry): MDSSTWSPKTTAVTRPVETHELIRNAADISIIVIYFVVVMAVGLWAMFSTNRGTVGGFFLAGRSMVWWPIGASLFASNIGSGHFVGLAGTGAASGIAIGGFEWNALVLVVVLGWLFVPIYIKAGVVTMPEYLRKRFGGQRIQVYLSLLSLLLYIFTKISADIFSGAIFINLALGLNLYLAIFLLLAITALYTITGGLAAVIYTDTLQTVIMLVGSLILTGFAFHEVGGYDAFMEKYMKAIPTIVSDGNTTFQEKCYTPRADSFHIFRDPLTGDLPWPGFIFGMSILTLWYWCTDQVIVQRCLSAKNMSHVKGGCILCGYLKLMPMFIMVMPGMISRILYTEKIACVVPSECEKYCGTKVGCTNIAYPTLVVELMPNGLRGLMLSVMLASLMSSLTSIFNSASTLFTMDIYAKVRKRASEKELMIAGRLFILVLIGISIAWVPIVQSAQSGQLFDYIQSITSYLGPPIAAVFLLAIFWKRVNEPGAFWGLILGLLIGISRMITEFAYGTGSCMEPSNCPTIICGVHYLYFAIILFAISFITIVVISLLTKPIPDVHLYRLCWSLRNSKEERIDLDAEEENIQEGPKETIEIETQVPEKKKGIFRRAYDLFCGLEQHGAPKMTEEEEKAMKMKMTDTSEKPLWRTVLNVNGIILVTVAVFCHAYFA

| IC50 [1] [nM] | IC50 [2] [nM] | SMILES | glucose excursion after glucose challenge (KKay mice [3]) | HbA1c (KKay mice [4]) | postprandial tGLP-1 (KKay mice [5]) |
| --- | --- | --- | --- | --- | --- |
| < 10 | < 10 | CS[C@H]1O[C@@H](c2ccc(C)c(Cc3ccc(OCCCNC(C)(C)CO)cc3)c2)[C@H](O)[C@@H](O)[C@@H]1O [(2S,3R,4R,5S,6R)-2-(3-(4-(3-((1-hydroxy-2-methylpropan-2-yl)amino)propoxy)benzyl)-4-methylphenyl)-6-(methylthio)tetrahydro-2H-pyran-3,4,5-triol] | dose-dependent decrease in glucose excursion | significant, dose-dependent reduction in HbA1c | significant increase in postprandial tGLP-1 |
| < 100 | < 10 | CS[C@H]1O[C@@H](c2ccc(C)c(Cc3ccc(CCCCCNCc4ccccc4)cc3)c2)[C@H](O)[C@@H](O)[C@@H]1O [(2S,3R,4R,5S,6R)-2-(3-(4-(5-(benzylamino)pentyl)benzyl)-4-methylphenyl)-6-(methylthio)tetrahydro-2H-pyran-3,4,5-triol] |  |  |  |
| < 10 | < 10 | CS[C@H]1O[C@@H](c2ccc(Cl)c(Cc3ccc(OCCCNC(=N)N)cc3)c2)[C@H](O)[C@@H](O)[C@@H]1O [1-(3-(4-(2-chloro-5-((2S,3R,4R,5S,6R)-3,4,5-trihydroxy-6-(methylthio)tetrahydro-2H-pyran-2-yl)benzyl)phenoxy)propyl)guanidine] |  |  |  |
